Reference: US11318157B2, “6-6 bicyclic aromatic ring substituted nucleoside analogues for use as PRMT5 inhibitors” (Janssen Pharmaceutica NV, priority 2015, dated 2022)
Where two headings read alike, the source gives them in different places.

Key:
PRMT5-MEP50 enzyme [1] = target: T1, PRMT5-MEP50 enzyme (Homo sapiens, UniProt O14744); test: In vitro assay 1a: high throughput mass spectrometer assay of SAH formation, 10 nM enzyme, 60 min; type: biochemical; conditions: averaged values, PRMT5-MEP50, 10 nM enzyme, read-out: pIC50 Assay 1a (converted)
T1 construct: One virus expresses full length human PRMT5 with Flag-tag at N-terminus; Flag (N); purchased Charles River (Argenta); host or cells: insect cells (Sf9), baculovirus co-infection
T1 sequence (O14744 whole entry): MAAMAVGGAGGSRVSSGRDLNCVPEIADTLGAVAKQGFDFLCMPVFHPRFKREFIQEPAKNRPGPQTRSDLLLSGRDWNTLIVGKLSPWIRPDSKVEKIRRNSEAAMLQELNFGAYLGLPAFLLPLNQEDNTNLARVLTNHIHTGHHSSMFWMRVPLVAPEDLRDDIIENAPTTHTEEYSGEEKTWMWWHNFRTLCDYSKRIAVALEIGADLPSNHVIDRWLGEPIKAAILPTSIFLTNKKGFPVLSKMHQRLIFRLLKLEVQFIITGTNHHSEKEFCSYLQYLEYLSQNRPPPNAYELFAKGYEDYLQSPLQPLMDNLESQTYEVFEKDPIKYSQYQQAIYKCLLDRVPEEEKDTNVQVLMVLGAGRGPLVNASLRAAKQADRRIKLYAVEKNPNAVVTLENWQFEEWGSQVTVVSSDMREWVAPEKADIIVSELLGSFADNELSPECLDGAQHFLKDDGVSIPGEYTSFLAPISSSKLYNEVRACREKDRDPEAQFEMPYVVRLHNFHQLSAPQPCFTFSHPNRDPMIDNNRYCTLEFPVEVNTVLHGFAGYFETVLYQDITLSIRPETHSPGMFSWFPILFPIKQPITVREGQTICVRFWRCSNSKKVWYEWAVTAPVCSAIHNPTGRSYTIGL
T1 sequence (Q9BQA1 whole entry partner): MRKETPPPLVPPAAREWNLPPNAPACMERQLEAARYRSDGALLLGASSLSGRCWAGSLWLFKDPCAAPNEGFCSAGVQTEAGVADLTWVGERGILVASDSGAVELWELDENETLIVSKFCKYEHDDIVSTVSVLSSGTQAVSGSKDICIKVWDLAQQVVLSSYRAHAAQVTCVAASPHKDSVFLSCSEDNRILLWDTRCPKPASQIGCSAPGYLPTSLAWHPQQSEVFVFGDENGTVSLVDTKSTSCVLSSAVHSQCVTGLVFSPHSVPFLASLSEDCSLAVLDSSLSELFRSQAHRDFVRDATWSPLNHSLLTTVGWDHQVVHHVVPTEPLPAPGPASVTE
Source text: Experimental Procedures In Vitro Assay (Assay 1a and 1b)
PRMT5-MEP50 enzyme was purchased from Charles River (Argenta). The enzyme complex was produced in insect cells (Sf9) infected simultaneously with two baculoviruses. One virus expresses full length human PRMT5 with Flag-tag at N-terminus, the second virus expresses full length MEP50 with His6-TEV cleavage at N-terminus. The protein was affinity purified using anti-Flag (M2) beads eluted with 3×FLAG peptide, followed by His-Select eluted with 0.5M imidazole. Eluted protein was then dialysed against tris-buffered saline (TBS) (pH 8.0) containing 20% glycerol and 3 mM dithiothreitol (DTT).
Full-length untagged human recombinant histone H2A (residues 1-130, Genbank Accession #NM_021052 MW=14.1 kDa) expressed in E. coli was purchased from Reaction Biology Corporation, Cat #HMT-11-146. Reagents used for making reaction buffer or stopping reaction were purchased including Tris base (Sigma Cat #T-1503), NaCl (Sigma Cat #RGF-3270), MgCl2 (Sigma Cat #M0250), DTTI (Invitrogen Cat #15508-013) and Formic Acid (Riedel deHaen, Cat #33015)
High Throughput Mass Spectrometer Assay
PRMT5 catalyzes the sequential methylations of the terminal nitrogen atoms on the guanidine groups of arginine residues within proteins using co-substrate S-adenosyl-L-methionine (AdoMet, SAM), forming mono-methyl (MMA), symmetric-dimethyl arginine (sDMA) and S-adenosyl-L-homocysteine (AdoHcy, SAH). The enzyme activity was determined by following the product SAH formation using high throughput mass spectrometry (Agilent Rapidfire 300 System coupled to a Sciex 4000 series QTrap® triple-quad MS/MS). The reaction buffer was 20 mM Tris-HCl, pH 8.5, 50 mM NaCl, 5 mM MgCl2 and 1 mM DTT. The reaction activity was stopped using 1% formic acid (final concentration).
The IC50 Studies were performed using eleven point dosing series made for each compound by serially diluted 1:2 in dimethyl sulfoxide (DMSO), with point 12 being a DMSO control. Compounds were first spotted to plates, and followed by addition of 2 μM SAM and 0.6 μM H2A (histone H2A) solution mixture. The same volume of enzyme solution was added to initiate the enzymatic reactions. The final concentrations of the reaction are at 1 μM SAM, 0.3 μM H2A and 10 nM enzyme (assay 1a) or 1.25 nM enzyme (assay 1b). The reaction was incubated at 30° C. for 60 minutes (min) when 10 nM enzyme was used and for 120 min when 1.25 nM enzyme was used. Subsequently, the reaction was quenched by addition of formic acid to a final concentration of 1%. The inhibitions of SAH formation in the presence of compounds were calculated as a percentage of the control relative to the uninhibited reaction as a function of inhibitor concentration. The data were fit as follows: Y=Bottom+(Top−Bottom)/(1+10^((log IC50−X)*h))
where IC50 is the inhibitor concentration (same unit as X) at 50% inhibition and h is the Hill slope. Y is percent of inhibition, X is log of compound concentration. Bottom and Top are the plateaus in same units as Y.

PRMT5-MEP50 enzyme [2] = target: T1, PRMT5-MEP50 enzyme; test: In vitro assay 1b: high throughput mass spectrometer assay of SAH formation, 1.25 nM enzyme, 120 min; type: biochemical; conditions: averaged values; PRMT5-MEP50, 1.25 nM enzyme, 120 min; read-out: pIC50 Assay 1b (converted)
Procedure, shortened: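 Flag-PRMT5/His-MEP50 complex from Sf9 cells, with 1 μM SAM and 0.3 μM full-length histone H2A in pH 8.5 Tris buffer, at 30 °C; 10 nM enzyme for 60 min (1a) or 1.25 nM for 120 min (1b). Formic acid-quenched SAH read by RapidFire MS/MS; 11-point IC50 with Hill fit.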

[3] = tested on: nuclear symmetric Arginine dimethylation in A549 cells; test: PD assay (assay 2): inhibition of nuclear symmetric Arginine dimethylation (SYM10 immunohistochemistry), 48 h; type: cell-based; conditions: Homo sapiens
Procedure, shortened: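 Cells seeded at 400/well overnight, then treated 48 h at 37 °C, final DMSO 0.2%. Fixed and stained with SYM10 antibody plus Alexa 488 secondary, Hoechst and CellMask, then imaged on Opera. Normalized to DMSO (high) and 10 μM reference compound (low); averaged pIC50 reported.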

[4] = A549, averaged values, PD assay, A549 cells, symmetric Arginine dimethylation, read-out: pIC50 Assay 2 (converted)
[5] = A549, read-out: pIC50 Assay 2 (converted)

Structure (SMILES) | IC50 (PRMT5-MEP50 enzyme [1]) [µM] | IC50 (PRMT5-MEP50 enzyme [2]) [µM] | IC50 [3, 4] [µM] | IC50 [3, 5] [µM]
Nc1ncnc2c1ccn2[C@@H]1O[C@H](CCc2ccc3cc(Cl)cnc3c2)[C@@H](O)[C@H]1O [Compound 59] | 0.0251 | 0.0794 | 0.126 | –
Nc1ncnc2c1ccn2[C@@H]1C[C@H](Cc2ccc3ccccc3c2)[C@@H](O)[C@H]1O [Compound 90] | 0.1 | 0.631 | > 10 | –
Nc1ncnc2c1ccn2[C@@H]1C[C@H](Cc2ccc3ccncc3c2)[C@@H](O)[C@H]1O [Compound 95] | 0.316 | 0.501 | > 10 | –
N#Cc1ccc2ccc(OC[C@H]3O[C@@H](n4ccc5c(N)ncnc54)[C@H](O)[C@@H]3O)cc2n1 [Compound 70] | 0.631 | 1.58 | 6.31 | –
Nc1ncnc2c1ccn2[C@@H]1O[C@H](COc2ccc3ncccc3c2)[C@@H](O)[C@H]1O [Compound 11] | 3.16 | 7.94 | > 10 | –
Nc1ncnc2c1ccn2[C@@H]1O[C@H](COc2ccc3ccncc3c2)[C@@H](O)[C@H]1O [Compound 13] | 0.794 | 2 | 15.8 | –
Cc1nc(N)c2ccn([C@@H]3O[C@H](COc4ccc5cc(Br)cnc5c4)[C@@H](O)[C@H]3O)c2n1 [Compound 43] | 0.0794 | 0.2 | 0.316 | –
Nc1ncnc2c1ccn2[C@@H]1O[C@H](COc2cccc3cccnc23)[C@@H](O)[C@H]1O [Compound 8] | 6.31 | 12.6 | > 10 | –
Nc1ccc2ccc(OC[C@H]3O[C@@H](n4ccc5c(N)ncnc54)[C@H](O)[C@@H]3O)cc2n1 [Compound 218] | 0.00251 | 0.00501 | – | 0.00501
CN(C)Cc1ccc2ccc(OC[C@H]3O[C@@H](n4ccc5c(N)ncnc54)[C@H](O)[C@@H]3O)cc2n1 [Compound 97] | > 10 | 15.8 | > 10 | –
COc1cnc2cc(OC[C@H]3O[C@@H](n4ccc5c(N)ncnc54)[C@H](O)[C@@H]3O)ccc2c1 [Compound 26] | 0.0631 | 0.2 | ~0.251 | –
O[C@@H]1[C@H](O)[C@@H](COc2ccc3c(Cl)ccnc3c2)O[C@H]1n1ccc2c(Cl)ncnc21 [Compound 34] | 7.94 | > 100 | > 20 | –
CC(C)Nc1ccc2ccc(CC[C@H]3C[C@@H](n4ccc5c(N)ncnc54)[C@H](O)[C@@H]3O)cc2n1 [Compound 149] | 0.000316 | 0.00501 | – | 0.001
N#Cc1cnc2cc(OC[C@H]3O[C@@H](n4ccc5c(N)ncnc54)[C@H](O)[C@@H]3O)ccc2c1 [Compound 98] | 0.631 | 1.58 | 10 | –
Nc1ncnc2c1ccn2[C@@H]1O[C@H](COc2ccc3cc(Cl)cnc3c2Cl)[C@@H](O)[C@H]1O [Compound 101] | 1 | 0.794 | 2 | –
Nc1ncnc2c1ccn2[C@@H]1O[C@H](COc2ccc3cccnc3c2I)[C@@H](O)[C@H]1O [Compound 40] | 2.51 | 1.58 | ~12 | –
COc1ncnc2c1ccn2[C@@H]1O[C@H](CNc2ccc3cc(Br)cnc3c2)[C@@H](O)[C@H]1O [Compound 87] | 0.501 | 1 | 1.58 | –

Continued, in another order:

IC50 (PRMT5-MEP50 enzyme [1]) [µM] | IC50 (PRMT5-MEP50 enzyme [2]) [µM] | IC50 [3, 4] [µM] | Structure (SMILES) | IC50 [3, 5] [µM]
0.000251 | 0.00251 | < 0.00117 | Nc1ncnc2c1ccn2[C@@H]1C[C@H](CCc2ccc3ccc(NC4CCCC4)nc3c2)[C@@H](O)[C@H]1O [Compound 146] | –
0.00398 | 0.0316 | 0.02 | O[C@@H]1[C@H](O)[C@@H](CCc2ccc3ccc(NCc4ccc(Cl)cc4)nc3c2)O[C@H]1n1ccc2cncnc21 [Compound 165] | –
3.98 | > 100 | 7.94 | Nc1ncnc2c1ncn2[C@@H]1O[C@H](COc2cc3ncc(Br)cc3cc2Cl)[C@@H](O)[C@H]1O [Compound 219] | –
0.0126 | 0.1 | 0.126 | O[C@@H]1[C@H](O)[C@@H](CCc2ccc3ccc(NCc4ccc(Cl)cc4)nc3c2)O[C@H]1n1ccc2c(Cl)ncnc21 [Compound 127] | –
0.00794 | 0.0501 | 0.0631 | Nc1ncnc2c1ccn2[C@@H]1C[C@H](CCc2ccc3cnc(NCC4CC4)nc3c2)[C@@H](O)[C@H]1O [Compound 141] | –
> 10 | 3.16 | > 10 | COCc1ccc2ccc(OC[C@H]3O[C@@H](n4ccc5c(N)ncnc54)[C@H](O)[C@@H]3O)cc2n1 [Compound 175] | –
0.0794 | 0.316 | 0.316 | COCc1cnc2cc(OC[C@H]3O[C@@H](n4ccc5c(N)ncnc54)[C@H](O)[C@@H]3O)ccc2c1 [Compound 120] | –
0.01 | 0.0631 | 0.0501 | CNc1ccc2ccc(CC[C@H]3O[C@@H](n4ccc5cncnc54)[C@H](O)[C@@H]3O)cc2n1 [Compound 169] | –
0.000501 | 0.00398 | < 0.00117 | Nc1ncnc2c1ccn2[C@@H]1C[C@H](CCc2ccc3ccc(NC4CC4)nc3c2)[C@@H](O)[C@H]1O [Compound 152] | –
0.01 | 0.0316 | 0.0631 | Cc1ncnc2c1ccn2[C@@H]1O[C@H](CCc2ccc3ccc(NCc4ccc(Cl)cc4)nc3c2)[C@@H](O)[C@H]1O [Compound 177] | –
0.01 | 0.0794 | 0.0251 | COc1ncnc2c1ccn2[C@@H]1O[C@H](COc2ccc3ccc(N)nc3c2)[C@@H](O)[C@H]1O [Compound 187] | –
0.00398 | 0.00794 | 0.0501 | CNc1ccc2ccc(OC[C@H]3O[C@@H](n4ccc5c(N)ncnc54)[C@H](O)[C@@H]3O)cc2n1 [Compound 185] | –
0.000631 | 0.00631 | 0.00631 | Nc1ccc2ccc(CC[C@H]3O[C@@H](n4ccc5c(Cl)ncnc54)[C@H](O)[C@@H]3O)cc2n1 [Compound 133] | –
0.000398 | 0.01 | < 0.00117 | CNc1ccc2ccc(CC[C@H]3C[C@@H](n4ccc5cncnc54)[C@H](O)[C@@H]3O)cc2n1 [Compound 164] | –
0.0126 | 0.0398 | 0.0631 | Nc1ncnc2c1ccn2[C@@H]1O[C@H](CCc2ccc3cc(Br)cnc3c2)[C@@H](O)[C@H]1O [Compound 111] | –
0.00158 | 0.02 | 0.00631 | CNc1ccc2ccc(CC[C@H]3O[C@@H](n4ccc5c(N)ncnc54)[C@H](O)[C@@H]3O)cc2n1 [Compound 137] | –
0.1 | 0.501 | > 10 | Nc1ncnc2c1ccn2[C@@H]1O[C@H](COc2cc(Cl)c3cccnc3c2)[C@@H](O)[C@H]1O [Compound 102] | –
0.158 | 1 | 2.51 | COC(=O)c1cnc2cc(OC[C@H]3O[C@@H](n4ccc5c(N)ncnc54)[C@H](O)[C@@H]3O)ccc2c1 [Compound 105] | –
0.00794 | 0.0398 | 1.26 | Nc1ncc2ccc(CC[C@H]3C[C@@H](n4ccc5c(Cl)ncnc54)[C@H](O)[C@@H]3O)cc2n1 [Compound 215] | –
